# Patent publication US20210253562A1, “ACYLSUFONAMIDE COMPOUNDS USEFUL AS EP3 RECEPTOR ANTAGONISTS” (Janssen Pharmaceutica NV, priority 2018, published 2021)
# How the values were obtained:
# [1] = target: T1, CHO cells over-expressing the EP3 receptor (Homo sapiens, UniProt P43115); test: CHO cell cAMP assay; EP3 cAMP antagonist dose response (sulprostone reference), HTRF; format: cell-based; settings: sulprostone 700 nM (EC80) and FSK 2 μM (EC70); read-out: CHO_cAMP IC50
# T1 construct: expressed in transfected cells; host or cells: CHO cells
# T1 sequence (P43115 1-390): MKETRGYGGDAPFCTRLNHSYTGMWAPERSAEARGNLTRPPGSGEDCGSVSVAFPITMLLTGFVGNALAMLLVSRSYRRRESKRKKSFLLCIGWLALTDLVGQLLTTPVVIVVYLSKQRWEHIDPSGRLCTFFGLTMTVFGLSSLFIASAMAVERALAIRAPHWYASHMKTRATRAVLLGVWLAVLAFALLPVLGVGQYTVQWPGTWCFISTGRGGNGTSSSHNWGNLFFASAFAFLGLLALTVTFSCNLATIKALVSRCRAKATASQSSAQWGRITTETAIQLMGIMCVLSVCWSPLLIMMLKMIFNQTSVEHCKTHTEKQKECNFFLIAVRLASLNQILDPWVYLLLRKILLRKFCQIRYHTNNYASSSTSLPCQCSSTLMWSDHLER
# In short: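 EP3-overexpressing CHO cells pre-incubated with test compound, then stimulated 30 min at 37 °C with FSK (2 μM, EC70) plus sulprostone (700 nM, EC80); antagonism seen as restored cAMP. cAMP measured by HTRF 665/615 ratio, converted via on-plate standard curve. IC50 from Hill fit of 11-point dosing.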
# [2] = target: T2, EP3 membrane (EP3 receptor) (Homo sapiens, UniProt P43115); test: [3H]-PGE2 binding; EP3 competition binding (SPA)
# T2 construct: purchased Millipore HTS092M
# T2 sequence (P43115 1-390): T1 sequence (P43115 1-390)
# In short: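 Ki derived from one-site nonlinear regression of scintillation proximity counts after 2 h room-temperature equilibration. Serially diluted (1:3) compounds competed against [3H]-PGE2 (2 nM) for EP3 receptor membranes (2 μg/well) in pH 7.4 Tris buffer with 10 mM MgCl2, 1 mM EDTA, 0.1% DMSO.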
SMILES,IC50 [1] [nM],Ki [2] [nM]
"O=C(NS(=O)(=O)c1ccc(Cl)cc1)OC/C=C1\CCCc2c(C(F)F)nn(Cc3ccc(Cl)cc3Cl)c21 [Compound #32, (E)-2-(1-(2,4-dichlorobenzyl)-3-(difluoromethyl)-1,4,5,6-tetrahydro-7H-indazol-7-ylidene)ethyl ((4-chlorophenyl)sulfonyl)carbamate]",1300,168
"O=C(NC/C=C1\CCCc2c(C(F)F)nn(Cc3ccc(Cl)cc3Cl)c21)NS(=O)(=O)c1ccc(Cl)cc1 [Compound #47, (E)-4-chloro-N-((2-(1-(2,4-dichlorobenzyl)-3-(difluoromethyl)-1,4,5,6-tetrahydro-7H-indazol-7-ylidene)ethyl)carbamoyl)benzenesulfonamide]",120,65
"O=C(NC/C(F)=C1/CCCc2onc(Cc3ccc(Cl)cc3Cl)c21)NS(=O)(=O)c1cc(Cl)c(Cl)s1 [Compound #128, (E)-4,5-dichloro-N-((2-(3-(2,4-dichlorobenzyl)-6,7-dihydrobenzo[d]isoxazol-4(5H)-ylidene)-2-fluoroethyl)carbamoyl)thiophene-2-sulfonamide]",8400,532
"COc1cccc(S(=O)(=O)NC(=O)NC/C=C2\COCc3cnn(Cc4ccc(Cl)cc4Cl)c32)c1 [Compound #63, (Z)—N-((2-(1-(2,4-dichlorobenzyl)-1,4-dihydropyrano[4,3-c]pyrazol-7(6H)-ylidene)ethyl)carbamoyl)-3-methoxybenzenesulfonamide]",121,44
"COc1ccc(F)cc1S(=O)(=O)NC(=O)NC/C=C1\COCc2cnn(Cc3ccc(Cl)cc3Cl)c21 [Compound #64, (Z)—N-((2-(1-(2,4-dichlorobenzyl)-1,4-dihydropyrano[4,3-c]pyrazol-7(6H)-ylidene)ethyl)carbamoyl)-5-fluoro-2-methoxybenzenesulfonamide]",81,12
"O=C(NC/C=C1\CCCc2cnn(-c3cccc(C(F)(F)F)c3)c21)NS(=O)(=O)c1cc(Cl)c(Cl)s1 [Compound #92, (E)-4,5-dichloro-N-((2-(1-(3-(trifluoromethyl)phenyl)-1,4,5,6-tetrahydro-7H-indazol-7-ylidene)ethyl)carbamoyl)thiophene-2-sulfonamide]",214,17
"O=C(NC/C(F)=C1/CCCc2cnn(-c3ccc(C(F)(F)F)cc3)c21)NS(=O)(=O)c1ccc2c(c1)OCCO2 [Compound #117, (E)-N-((2-fluoro-2-(1-(4-(trifluoromethyl)phenyl)-1,4,5,6-tetrahydro-7H-indazol-7-ylidene)ethyl)carbamoyl)-2,3-dihydrobenzo[b][1,4]dioxine-6-sulfonamide]",> 20000,> 10000
"COc1ccc(S(=O)(=O)NC(=O)C/C=C2\CCCc3cnn(Cc4ccc(Cl)cc4Cl)c32)cc1 [Compound #23, (E)-3-(1-(2,4-dichlorobenzyl)-1,4,5,6-tetrahydro-7H-indazol-7-ylidene)-N-((4-methoxyphenyl)sulfonyl)propenamide]",453,256
"O=C(NC/C=C1\CCCc2cnn(Cc3ccc(Cl)cc3Cl)c21)NS(=O)(=O)c1cccs1 [Compound #10, (E)-N-((2-(1-(2,4-dichlorobenzyl)-1,4,5,6-tetrahydro-7H-indazol-7-ylidene)ethyl)carbamoyl)thiophene-2-sulfonamide]",28,15
"O=C(NC/C(F)=C1\CCCc2cnn(Cc3ccc(Cl)cc3Cl)c21)NS(=O)(=O)c1cc2ccccc2o1 [Compound #111, (Z)—N-((2-(1-(2,4-dichlorobenzyl)-1,4,5,6-tetrahydro-7H-indazol-7-ylidene)-2-fluoroethyl)carbamoyl)benzofuran-2-sulfonamide]",399,59
"O=C(NC/C(F)=C1\CCCc2cnn(Cc3ccc(C(F)(F)F)cc3)c21)NS(=O)(=O)c1cc2ccccc2s1 [Compound #133, (Z)—N-((2-fluoro-2-(1-(4-(trifluoromethyl)benzyl)-1,4,5,6-tetrahydro-7H-indazol-7-ylidene)ethyl)carbamoyl)benzo[b]thiophene-2-sulfonamide]",1260,289
"O=C(NC/C(F)=C1\CCCCc2cnn(Cc3ccc(Cl)cc3Cl)c21)NS(=O)(=O)c1ccc(Cl)cc1 [Compound #98, (Z)-4-chloro-N-((2-(1-(2,4-dichlorobenzyl)-4,5,6,7-tetrahydrocyclohepta[c]pyrazol-8(1H)-ylidene)-2-fluoroethyl)carbamoyl)benzenesulfonamide]",120,171
"CN(C/C(F)=C1\COCc2cnn(Cc3ccc(Cl)cc3Cl)c21)C(=O)NS(=O)(=O)c1cc(Cl)c(Cl)s1 [Compound #74, (E)-4,5-dichloro-N-((2-(1-(2,4-dichlorobenzyl)-1,4-dihydropyrano[4,3-c]pyrazol-7(6H)-ylidene)-2-fluoroethyl)(methyl)carbamoyl)thiophene-2-sulfonamide]",31,35
"O=C(C/C=C1\CCCc2cnn(Cc3ccc(Cl)cc3Cl)c21)NS(=O)(=O)c1ccc2c(c1)OCCO2 [Compound #18, (E)-3-(1-(2,4-dichlorobenzyl)-1,4,5,6-tetrahydro-7H-indazol-7-ylidene)-N-((2,3-dihydrobenzo[b][1,4]dioxin-6-yl)sulfonyl)propenamide]",662,147
"O=C(NS(=O)(=O)c1ccc(Cl)cc1)OC/C=C1\CCCc2cnn(Cc3ccc(Cl)cc3Cl)c21 [Compound #2, (E)-2-(1-(2,4-dichlorobenzyl)-1,4,5,6-tetrahydro-7H-indazol-7-ylidene)ethyl ((4-chlorophenyl)sulfonyl)carbamate]",92,11

# Molecules with a lower IC50 [1], results first:
IC50 [1] [nM],Ki [2] [nM],SMILES
27,6,"O=C(NC/C=C1\CCCc2cnn(Cc3ccc(Cl)cc3Cl)c21)NS(=O)(=O)c1cc2ccccc2o1 [Compound #28, (E)-N-((2-(1-(2,4-dichlorobenzyl)-1,4,5,6-tetrahydro-7H-indazol-7-ylidene)ethyl)carbamoyl)benzofuran-2-sulfonamide]"
21,4,"COc1ccc(Cl)cc1S(=O)(=O)NC(=O)NC/C=C1\COCc2cnn(Cc3ccc(Cl)cc3Cl)c21 [Compound #66, (Z)-5-chloro-N-((2-(1-(2,4-dichlorobenzyl)-1,4-dihydropyrano[4,3-c]pyrazol-7(6H)-ylidene)ethyl)carbamoyl)-2-methoxybenzenesulfonamide]"
18,3,"COc1ccc(S(=O)(=O)NC(=O)NC/C(F)=C2\CCCc3cnn(Cc4ccc(Cl)cc4Cl)c32)cc1Cl [Compound #143, (Z)-3-chloro-N-((2-(1-(2,4-dichlorobenzyl)-1,4,5,6-tetrahydro-7H-indazol-7-ylidene)-2-fluoroethyl)carbamoyl)-4-methoxybenzenesulfonamide]"
17,6,"O=C(C/C(F)=C1\CCCc2cnn(Cc3ccc(Cl)cc3Cl)c21)NS(=O)(=O)c1cc(Cl)c(Cl)s1 [Compound #93, (Z)-3-(1-(2,4-dichlorobenzyl)-1,4,5,6-tetrahydro-7H-indazol-7-ylidene)-N-((4,5-dichlorothiophen-2-yl)sulfonyl)-3-fluoropropanamide]"
10,1,"O=C(NC/C=C1\CCCc2cnn(-c3cccc4ccccc34)c21)NS(=O)(=O)c1cc(Cl)c(Cl)s1 [Compound #78, (E)-4,5-dichloro-N-((2-(1-(naphthalen-1-yl)-1,4,5,6-tetrahydro-7H-indazol-7-ylidene)ethyl)carbamoyl)thiophene-2-sulfonamide]"
6,3,"O=C(CC/C=C1\CCCc2cnn(Cc3ccc(Cl)cc3Cl)c21)NS(=O)(=O)c1ccc(Cl)cc1 [Compound #24, (E)-N-((4-chlorophenyl)sulfonyl)-4-(1-(2,4-dichlorobenzyl)-1,4,5,6-tetrahydro-7H-indazol-7-ylidene)butanamide]"
6,1,"O=C(NC/C=C1\CCCc2cnn(C3CCN(c4ccc(F)cc4)CC3)c21)NS(=O)(=O)c1cc(Cl)c(Cl)s1 [Compound #123, (E)-4,5-dichloro-N-((2-(1-(1-(4-fluorophenyl)piperidin-4-yl)-1,4,5,6-tetrahydro-7H-indazol-7-ylidene)ethyl)carbamoyl)thiophene-2-sulfonamide]"
4,7,"O=C(NC/C(F)=C1/COCc2cnn(Cc3ccc(Cl)cc3Cl)c21)NS(=O)(=O)c1cc(Cl)c(Cl)s1 [Compound #60, (Z)-4,5-dichloro-N-((2-(1-(2,4-dichlorobenzyl)-1,4-dihydropyrano[4,3-c]pyrazol-7(6H)-ylidene)-2-fluoroethyl)carbamoyl)thiophene-2-sulfonamide]"
2,1,"O=C(NC/C=C1\CCCc2cnn(Cc3ccc(Cl)cc3Cl)c21)NS(=O)(=O)c1ccc(Cl)s1 [Compound #11, (E)-5-chloro-N-((2-(1-(2,4-dichlorobenzyl)-1,4,5,6-tetrahydro-7H-indazol-7-ylidene)ethyl)carbamoyl)thiophene-2-sulfonamide]"
